T and T1/2 data for six compounds are collected here from ChEMBL document CHEMBL1128631, “Photoinduced electron transfer for pyrenesulfonamide conjugates of tryptophan-containing peptides. Mitigation of fluoroprobe behavior in N-terminal labeling experiments” (Bioorg Med Chem Lett, 1995).

Common to all, as to format: ADME
Data set [1] can be described thus: Life-time was measured in the presence of DMF solvent (t = weighted average of two lifetimes from biexponential decay).
The nature of data set [2]: Life-time was measured in the presence of methyl cyanide solvent (t = weighted average of two lifetimes from biexponential decay).
Data set [3] can be described thus: Half-life time was measured in the presence of methyl cyanide solvent.

`CCOC(=O)[C@H](Cc1c[nH]c2ccccc12)NS(=O)(=O)c1ccc2ccc3cccc4ccc1c2c34`: the t came out at 0.32 ns in data set [1] and 0.79 ns in data set [2].

In the case of `CCOC(=O)[C@H](Cc1c[nH]c2ccccc12)NC(=O)[C@H](C)NS(=O)(=O)c1ccc2ccc3cccc4ccc1c2c34`, the t in data set [1] was found to be 0.5 ns; in data set [2] it was 0.76 ns.

For `CCOC(=O)[C@H](Cc1c[nH]c2ccccc12)NC(=O)[C@H](C)NC(=O)[C@H](C)NS(=O)(=O)c1ccc2ccc3cccc4ccc1c2c34`, the figures for the t in data set [1] and in data set [2] were 1.3 ns and 3.1 ns, respectively.

Take `CCOC(=O)[C@H](Cc1c[nH]c2ccccc12)NC(=O)[C@H](C)NS(=O)(=O)c1ccc2ccc3ccc([N+](=O)[O-])c4ccc1c2c34`: the T1/2 in data set [3] is listed as 0.4 us.

Take `CCOC(=O)[C@H](C)NS(=O)(=O)c1ccc2ccc3ccc([N+](=O)[O-])c4ccc1c2c34`: the T1/2 in data set [3] was found to be 12 us.

Regarding `CCOC(=O)[C@H](Cc1c[nH]c2ccccc12)NC(=O)[C@H](C)NC(=O)[C@H](C)NS(=O)(=O)c1ccc2ccc3ccc([N+](=O)[O-])c4ccc1c2c34`, the T1/2 in data set [3] amounted to 0.16 us.
